Data reported in ChEMBL document CHEMBL4130560, “Discovery of Indolinone-Based Multikinase Inhibitors as Potential Therapeutics for Idiopathic Pulmonary Fibrosis” (ACS Med Chem Lett, 2017).

Key:
[1] = target: Platelet-derived growth factor receptor beta (Homo sapiens, UniProt P09619); assay: Inhibition of recombinant PDGFRbeta (unknown origin) by off-chip mobility shift assay
[2] = tested on: Mus musculus; assay: Toxicity in C57 mouse at 10 to 100 mg/kg, po administered qd measured up to 28 days; format: organism-based; settings: in vivo, 672 h
[3] = Half life in Sprague-Dawley rat at 10 mg/kg, iv by UFLC-MS/MS analysis; format: ADME, organism-based; settings: in vivo
[4] = target: Voltage-gated inwardly rectifying potassium channel KCNH2 (Homo sapiens, UniProt Q12809)
[5] = target: Mast/stem cell growth factor receptor Kit (Homo sapiens, UniProt P10721); assay: Inhibition of recombinant c-KIT (unknown origin) by off-chip mobility shift assay
[6] = AUC in Beagle dog […] at 20 mg/kg, iv by UFLC-MS/MS analysis; format: ADME, organism-based, Canis lupus familiaris; settings: in vivo
[7] = Oral bioavailability in Sprague-Dawley rat at 10 mg/kg administered via gavage by UFLC-MS/MS analysis; format: ADME, organism-based; settings: in vivo
[8] = Half life in Beagle dog […] at 20 mg/kg, iv by UFLC-MS/MS analysis; format: ADME, organism-based, Canis lupus familiaris; settings: in vivo
[9] = AUC in Sprague-Dawley rat at 10 mg/kg, iv by UFLC-MS/MS analysis; format: ADME, organism-based; settings: in vivo
[10] = Oral bioavailability in CD1 mouse at 50 mg/kg administered via gavage by UFLC-MS/MS analysis; format: ADME, organism-based; settings: in vivo
[11] = Half life in CD1 mouse at 50 mg/kg, iv by UFLC-MS/MS analysis; format: ADME, organism-based; settings: in vivo
[12] = AUC in CD1 mouse at 50 mg/kg, iv by UFLC-MS/MS analysis; format: ADME, organism-based; settings: in vivo
[13] = tested on: Mus musculus; assay: Antifibrotic activity in BLM-induced chronic pulmonary fibrosis C57 mouse model assessed as increase in survival rate administered qd measured up to 28 days; format: functional, organism-based
[14] = Oral bioavailability in Beagle dog […] at 20 mg/kg administered via gavage by UFLC-MS/MS analysis; format: ADME, organism-based, Canis lupus familiaris; settings: in vivo
[15] = tested on: Mus musculus; assay: Toxicity in C57 mouse assessed as lethality at 5 mg/kg, iv after 28 days; format: organism-based; settings: in vivo, 672 h

Sequence of Platelet-derived growth factor receptor beta (P09619 whole entry): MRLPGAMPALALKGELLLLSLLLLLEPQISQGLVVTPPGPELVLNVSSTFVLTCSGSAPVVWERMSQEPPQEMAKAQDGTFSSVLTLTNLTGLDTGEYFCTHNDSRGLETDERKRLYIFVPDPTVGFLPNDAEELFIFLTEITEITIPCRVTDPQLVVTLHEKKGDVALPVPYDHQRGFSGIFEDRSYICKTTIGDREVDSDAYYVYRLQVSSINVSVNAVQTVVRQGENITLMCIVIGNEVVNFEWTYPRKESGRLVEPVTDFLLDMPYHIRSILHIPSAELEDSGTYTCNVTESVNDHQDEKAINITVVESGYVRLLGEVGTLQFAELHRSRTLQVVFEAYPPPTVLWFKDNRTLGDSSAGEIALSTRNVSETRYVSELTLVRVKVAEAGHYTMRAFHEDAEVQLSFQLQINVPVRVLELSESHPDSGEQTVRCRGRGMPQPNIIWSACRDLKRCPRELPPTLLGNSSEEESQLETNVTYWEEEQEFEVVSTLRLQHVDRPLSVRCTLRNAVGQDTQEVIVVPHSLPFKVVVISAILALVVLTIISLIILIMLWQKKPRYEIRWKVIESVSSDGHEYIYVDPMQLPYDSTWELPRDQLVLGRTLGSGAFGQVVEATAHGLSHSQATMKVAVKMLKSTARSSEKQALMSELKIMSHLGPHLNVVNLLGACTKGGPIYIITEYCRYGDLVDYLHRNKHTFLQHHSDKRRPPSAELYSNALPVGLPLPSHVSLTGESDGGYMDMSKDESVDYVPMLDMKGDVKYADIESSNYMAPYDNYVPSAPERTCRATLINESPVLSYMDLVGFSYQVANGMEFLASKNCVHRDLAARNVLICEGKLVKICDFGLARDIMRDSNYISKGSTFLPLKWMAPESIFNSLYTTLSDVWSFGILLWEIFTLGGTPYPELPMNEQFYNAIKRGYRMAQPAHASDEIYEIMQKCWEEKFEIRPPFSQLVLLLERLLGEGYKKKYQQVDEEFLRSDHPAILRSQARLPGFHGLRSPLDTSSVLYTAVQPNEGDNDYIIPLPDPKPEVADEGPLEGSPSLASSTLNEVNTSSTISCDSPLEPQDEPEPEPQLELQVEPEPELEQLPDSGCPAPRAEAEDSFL
Sequence of Voltage-gated inwardly rectifying potassium channel KCNH2 (Q12809 whole entry): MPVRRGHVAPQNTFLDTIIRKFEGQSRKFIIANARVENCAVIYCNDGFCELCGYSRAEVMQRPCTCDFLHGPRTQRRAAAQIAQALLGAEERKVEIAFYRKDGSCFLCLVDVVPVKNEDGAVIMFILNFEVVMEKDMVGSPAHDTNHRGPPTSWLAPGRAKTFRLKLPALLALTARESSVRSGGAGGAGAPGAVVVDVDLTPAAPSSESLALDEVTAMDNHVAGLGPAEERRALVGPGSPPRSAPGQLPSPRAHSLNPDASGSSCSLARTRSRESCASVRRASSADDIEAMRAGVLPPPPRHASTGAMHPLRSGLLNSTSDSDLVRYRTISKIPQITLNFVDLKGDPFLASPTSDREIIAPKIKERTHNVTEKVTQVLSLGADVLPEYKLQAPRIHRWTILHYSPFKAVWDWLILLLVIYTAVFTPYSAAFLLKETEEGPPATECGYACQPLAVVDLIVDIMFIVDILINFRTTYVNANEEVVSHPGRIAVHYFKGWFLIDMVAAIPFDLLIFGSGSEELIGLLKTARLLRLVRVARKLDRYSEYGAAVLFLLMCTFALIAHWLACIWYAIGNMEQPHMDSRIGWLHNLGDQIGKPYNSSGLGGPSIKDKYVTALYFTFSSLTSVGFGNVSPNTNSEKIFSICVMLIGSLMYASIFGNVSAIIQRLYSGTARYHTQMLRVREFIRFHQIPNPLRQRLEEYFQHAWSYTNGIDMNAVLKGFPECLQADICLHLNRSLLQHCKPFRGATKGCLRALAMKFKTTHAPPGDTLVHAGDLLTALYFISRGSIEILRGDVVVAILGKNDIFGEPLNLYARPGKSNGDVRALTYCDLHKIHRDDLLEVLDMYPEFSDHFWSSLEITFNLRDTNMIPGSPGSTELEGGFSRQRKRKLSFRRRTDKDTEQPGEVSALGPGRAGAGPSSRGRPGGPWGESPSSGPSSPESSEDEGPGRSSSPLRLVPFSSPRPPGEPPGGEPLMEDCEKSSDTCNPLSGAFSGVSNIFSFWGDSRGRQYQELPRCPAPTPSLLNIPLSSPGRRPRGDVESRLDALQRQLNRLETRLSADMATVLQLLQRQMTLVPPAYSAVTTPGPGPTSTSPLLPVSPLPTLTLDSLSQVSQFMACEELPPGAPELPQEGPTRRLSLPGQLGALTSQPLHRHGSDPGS
Sequence of Mast/stem cell growth factor receptor Kit (P10721 whole entry): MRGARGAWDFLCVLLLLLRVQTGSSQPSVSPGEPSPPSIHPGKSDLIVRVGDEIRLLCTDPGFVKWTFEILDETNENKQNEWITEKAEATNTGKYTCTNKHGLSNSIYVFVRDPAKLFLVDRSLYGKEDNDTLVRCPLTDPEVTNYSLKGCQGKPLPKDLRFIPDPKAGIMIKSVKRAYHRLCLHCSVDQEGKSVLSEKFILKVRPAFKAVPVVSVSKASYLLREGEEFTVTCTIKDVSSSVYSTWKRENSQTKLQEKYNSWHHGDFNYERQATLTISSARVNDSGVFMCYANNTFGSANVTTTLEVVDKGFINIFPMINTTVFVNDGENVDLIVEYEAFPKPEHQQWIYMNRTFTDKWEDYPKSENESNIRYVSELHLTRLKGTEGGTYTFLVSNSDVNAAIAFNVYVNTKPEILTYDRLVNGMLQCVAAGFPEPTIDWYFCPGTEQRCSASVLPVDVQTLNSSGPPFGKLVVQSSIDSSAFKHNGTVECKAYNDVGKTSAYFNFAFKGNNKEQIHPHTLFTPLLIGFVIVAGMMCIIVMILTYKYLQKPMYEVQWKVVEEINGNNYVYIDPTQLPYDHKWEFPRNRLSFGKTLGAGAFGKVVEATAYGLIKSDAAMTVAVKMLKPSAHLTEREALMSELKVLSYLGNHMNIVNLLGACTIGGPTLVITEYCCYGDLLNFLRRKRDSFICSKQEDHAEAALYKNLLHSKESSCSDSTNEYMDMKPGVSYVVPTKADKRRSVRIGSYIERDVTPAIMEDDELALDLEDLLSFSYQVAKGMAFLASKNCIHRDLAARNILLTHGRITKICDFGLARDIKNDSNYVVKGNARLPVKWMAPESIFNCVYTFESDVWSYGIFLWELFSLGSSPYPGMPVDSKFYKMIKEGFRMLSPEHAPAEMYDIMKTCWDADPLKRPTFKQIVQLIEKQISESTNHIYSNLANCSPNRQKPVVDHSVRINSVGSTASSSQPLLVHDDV

Structure (SMILES)	IC50 [1] [nM]	IC50 [4] [nM]	further results
COC(=O)c1ccc2c(c1)NC(=O)/C2=C(\Nc1ccc2c(c1)N(C(=O)CN1CCOCC1)CC2)c1ccccc1	25	> 30	Activity [2]: Non-Toxic; half-life [3]: 4.8 h; IC50 [5]: 10 nM; AUC [6]: 2960 ng·h/mL; bioavailability [7]: 68%; half-life [8]: 3.3 h; AUC [9]: 6410 ng·h/mL; bioavailability [10]: 51%; half-life [11]: 4.3 h; AUC [12]: 17000 ng·h/mL; Activity [13]: Dose-dependent effect; bioavailability [14]: 29%
CN1CCN(CC(=O)N(C)c2ccc(N/C(=C3\C(=O)Nc4cc(-c5cnco5)ccc43)c3ccccc3)cc2)CC1	34		
CN1CCN(CC(=O)N(C)c2ccc(N/C(=C3\C(=O)Nc4cc(OC(F)(F)F)ccc43)c3ccccc3)cc2)CC1	27		
COC(=O)c1ccc2c(c1)NC(=O)/C2=C(\Nc1ccc2c(c1)N(C(=O)Cn1cccn1)CC2)c1ccccc1	24	> 30	
CN1CCN(CC(=O)N(C)c2ccc(N/C(=C3\C(=O)Nc4cc(-c5ncon5)ccc43)c3ccccc3)cc2)CC1	5.3		Activity [15]: Toxic
COC(=O)c1ccc2c(c1)NC(=O)/C2=C(\Nc1ccc2c(c1)N(C(=O)CN1CC(C)OC(C)C1)CC2)c1ccccc1 (stereo unspecified)	91	> 30	
COC(=O)c1ccc2c(c1)NC(=O)/C2=C(\Nc1ccc(N2CCC(CN3CCN(C)CC3)C2=O)cc1)c1ccccc1 (stereo unspecified)	45		
COC(=O)c1ccc2c(c1)NC(=O)/C2=C(\Nc1ccc2c(c1)N(C(=O)CN(C)C)CC2)c1ccccc1	15		
COC(=O)c1ccc2c(c1)NC(=O)/C2=C(\Nc1ccc2c(c1)N(C(=O)CN1CCCC1=O)CC2)c1ccccc1	19	> 30	
COC(=O)c1ccc2c(c1)NC(=O)/C2=C(\Nc1ccc(N(C)C(=O)CN2CCN(C)CC2)cc1)c1ccccc1 [NINTEDANIB]		2.6	

Now from value to compound, other results behind:

IC50 [1] [nM]	Structure (SMILES)	IC50 [4] [nM]	further results
1.5	CN1CCN(CC(=O)N(C)c2ccc(N/C(=C3\C(=O)Nc4cc(-n5nccn5)ccc43)c3ccccc3)cc2)CC1		
12	CN1CCN(CC(=O)N(C)c2ccc(N/C(=C3\C(=O)Nc4cc(-c5ccco5)ccc43)c3ccccc3)cc2)CC1		
14	COC(=O)c1ccc2c(c1)NC(=O)/C2=C(\Nc1ccc(N2C(=O)CC[C@@H]2CN(C)C)cc1)c1ccccc1		
3.2	COC(=O)c1ccc2c(c1)NC(=O)/C2=C(\Nc1ccc(N2C(=O)CC[C@@H]2CN2CCN(C)CC2)cc1)c1ccccc1		
4.5	CN1CCN(CC(=O)N(C)c2ccc(N/C(=C3\C(=O)Nc4cc(-c5ncno5)ccc43)c3ccccc3)cc2)CC1		
13	CN1CCN(CC(=O)N(C)c2ccc(N/C(=C3\C(=O)Nc4cc(-c5nnn(C)n5)ccc43)c3ccccc3)cc2)CC1		
15	COC(=O)c1ccc2c(c1)NC(=O)/C2=C(\Nc1ccc2c(c1)N(C(=O)Cn1cncn1)CC2)c1ccccc1	> 30	
4.3	COC(=O)c1ccc2c(c1)NC(=O)/C2=C(\Nc1ccc(N2C(=O)CC[C@H]2CN2CCN(C)CC2)cc1)c1ccccc1		
